This note sets out measurements from ChEMBL document CHEMBL4041539, “1,2,3-Triazole-nimesulide hybrid: Their design, synthesis and evaluation as potential anticancer agents” (Bioorg Med Chem Lett, 2017).

The subject of one series is A549. Put plainly: Growth inhibition of human A549 cells after 48 hrs by MTT assay. It is filed as functional, cell-based. Particulars: A549, 48 h.
The test system of the next series is HepG2. Put plainly: Growth inhibition of human HepG2 cells after 48 hrs by MTT assay. It is filed as functional, cell-based. As to conditions: HepG2, 48 h. For orientation: Tetrazolium dyes change colour on reduction, which living cells bring about.
For another series, the system named is HeLa. Put plainly: Growth inhibition of human HeLa cells after 48 hrs by MTT assay. It is filed as functional, cell-based.
A further series relates to DU-145. Put plainly: Growth inhibition of human DU145 cells after 48 hrs by MTT assay. In kind it is functional, cell-based. Particulars: DU-145, 48 h.
Series [1] concerns the target 3',5'-cyclic-AMP phosphodiesterase 4B (Homo sapiens) (UniProt Q07343). Put plainly: Inhibition of recombinant His-tagged PDE4B1 (unknown origin) expressed in baculovirus infected sf9 cells at 10 uM using cAMP as substrate preincubated for 15 mins followed by cAMP addition measured after 1 hr by PDE light HTS assay relative to control.
A further series relates to HEK293. Put plainly: Cytotoxicity against HEK293 cells up to 10 uM after 48 hrs by MTT assay. In kind it is cell-based. As to conditions: human, hek293, 48 h.
Series [2] addresses Prostaglandin G/H synthase 2 (Homo sapiens) (UniProt P35354). Put plainly: Inhibition of human COX2 expressed in baculovirus infected sf9 microsomes at 10 uM using arachidonic acid as substrate preincubated for 15 mins followed by substrate addition by TMPD oxidation based assay relative to control.

Sequence of 3',5'-cyclic-AMP phosphodiesterase 4B (Homo sapiens) (Q07343 whole entry): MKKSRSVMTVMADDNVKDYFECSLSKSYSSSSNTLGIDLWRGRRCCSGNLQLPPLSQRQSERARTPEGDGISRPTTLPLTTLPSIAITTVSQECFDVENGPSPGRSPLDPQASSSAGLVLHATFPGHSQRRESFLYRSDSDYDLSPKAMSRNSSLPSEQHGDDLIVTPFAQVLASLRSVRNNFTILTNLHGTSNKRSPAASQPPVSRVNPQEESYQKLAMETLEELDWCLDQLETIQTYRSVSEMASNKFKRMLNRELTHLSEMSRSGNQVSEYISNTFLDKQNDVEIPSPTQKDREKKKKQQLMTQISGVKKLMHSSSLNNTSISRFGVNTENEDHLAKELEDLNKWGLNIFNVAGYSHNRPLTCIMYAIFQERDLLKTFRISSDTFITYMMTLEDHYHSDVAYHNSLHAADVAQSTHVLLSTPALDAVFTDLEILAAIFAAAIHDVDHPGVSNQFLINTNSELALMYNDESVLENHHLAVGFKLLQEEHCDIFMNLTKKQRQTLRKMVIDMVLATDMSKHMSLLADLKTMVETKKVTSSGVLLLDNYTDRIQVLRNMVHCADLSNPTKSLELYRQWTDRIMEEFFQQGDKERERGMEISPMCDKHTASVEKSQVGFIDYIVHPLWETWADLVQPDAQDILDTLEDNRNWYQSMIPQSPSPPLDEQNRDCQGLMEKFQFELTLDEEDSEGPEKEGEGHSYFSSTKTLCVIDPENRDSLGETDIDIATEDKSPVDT
Sequence of Prostaglandin G/H synthase 2 (Homo sapiens) (P35354 whole entry, looked up): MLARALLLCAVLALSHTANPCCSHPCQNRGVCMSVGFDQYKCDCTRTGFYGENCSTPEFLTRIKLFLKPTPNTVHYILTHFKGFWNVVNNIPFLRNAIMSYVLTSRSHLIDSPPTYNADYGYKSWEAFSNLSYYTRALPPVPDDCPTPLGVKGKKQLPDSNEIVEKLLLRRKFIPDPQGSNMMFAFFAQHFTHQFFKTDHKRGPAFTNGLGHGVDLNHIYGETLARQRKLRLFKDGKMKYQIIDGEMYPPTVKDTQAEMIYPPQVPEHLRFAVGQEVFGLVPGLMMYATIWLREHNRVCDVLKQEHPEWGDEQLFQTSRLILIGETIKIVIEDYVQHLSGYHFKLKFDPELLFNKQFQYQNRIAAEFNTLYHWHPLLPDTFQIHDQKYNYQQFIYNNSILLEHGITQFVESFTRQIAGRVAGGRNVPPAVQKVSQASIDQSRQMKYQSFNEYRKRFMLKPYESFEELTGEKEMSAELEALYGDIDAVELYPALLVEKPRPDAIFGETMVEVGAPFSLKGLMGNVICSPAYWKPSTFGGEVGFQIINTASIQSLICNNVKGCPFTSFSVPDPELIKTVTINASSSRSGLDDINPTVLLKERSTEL

In general, IC50 refers to the concentration needed to halve the response being measured. A lower IC50 goes with greater potency in that assay. A word on the inhibition: it is the share of the control response that was lost under treatment. For the molecule `CS(=O)(=O)Nc1ccc(-n2cc(COc3ccc(Cl)cc3)nn2)cc1Oc1ccccc1`, the IC50 in the series with A549 stood at 7.1 µM; in the series on HepG2 it was 7.5 µM; in the series with HeLa it was 7.8 µM; in the series with DU-145 it was 6.4 µM. In addition, the inhibition in series [1] amounted to 62.8%; in series [2], 23%. Also, the Activity result with HEK293 is “Non-Toxic”.

For `CS(=O)(=O)Nc1ccc([N+](=O)[O-])cc1Oc1ccccc1` [NIMESULIDE], the results for the IC50 in the series with A549 and in the series with HepG2 were 67.8 µM and 35.2 µM, respectively. Also, the inhibition in series [1] turned out to be 52%.

Regarding `CS(=O)(=O)Nc1ccc(-n2cc(COc3ccc4ccccc4c3)nn2)cc1Oc1ccccc1`, the IC50 stood at 8.3 µM with A549, 19.5 µM in the series with HepG2, 12.8 µM with HeLa and 9.1 µM in the series on DU-145. Moreover, the Activity entry in the series with HEK293 is reported as “Non-Toxic”.

Regarding `Cc1ccc(-c2cn(-c3ccc(NS(C)(=O)=O)c(Oc4ccccc4)c3)nn2)cc1`, the IC50 was 18.3 µM with HepG2 and 11.2 µM with DU-145. For the same molecule, the Activity entry with HEK293 is “Non-Toxic”.

Take `CS(=O)(=O)Nc1ccc(-n2cc(COc3ccc([N+](=O)[O-])cc3)nn2)cc1Oc1ccccc1`: the IC50 with A549 came out at 6.6 µM; in the series with DU-145 it was 7.2 µM. Further, in series [1], the inhibition stood at 70.2%. Also, the Activity result with HEK293 is given as “Non-Toxic”.

Turning to `Cc1ccc(OCc2cn(-c3ccc(NS(C)(=O)=O)c(Oc4ccccc4)c3)nn2)cc1`, the IC50 came out at 8 µM with A549, 13 µM in the series on HepG2, 15.8 µM in the series on HeLa and 8.2 µM in the series with DU-145. For the same molecule, the Activity entry in the series on HEK293 is on record as “Non-Toxic”.

For the molecule `Cc1cc(OCc2cn(-c3ccc(NS(C)(=O)=O)c(Oc4ccccc4)c3)nn2)ccc1Cl`, the IC50 came out at 6.7 µM in the series on A549, 9.8 µM in the series on HepG2, 7.9 µM with HeLa and 5.9 µM in the series on DU-145. Moreover, the inhibition in series [1] was determined as 67.5%. The Activity entry in the series with HEK293 was “Non-Toxic”.

Take `CS(=O)(=O)Nc1ccc(-n2cc(COc3ccccc3Cl)nn2)cc1Oc1ccccc1`: the IC50 with A549 is 53.8 µM; in the series on HepG2 it was 25.3 µM; in the series on HeLa, 38.6 µM; in the series with DU-145, 21.1 µM. Moreover, in the series on HEK293, the Activity entry is given as “Non-Toxic”.

On to `CS(=O)(=O)Nc1ccc(-n2cc(-c3ccccc3)nn2)cc1Oc1ccccc1`, for which the IC50 is 29.9 µM in the series on A549, 13.6 µM in the series on HepG2, 21.9 µM in the series with HeLa and 14.2 µM in the series with DU-145. Further, in the series with HEK293, the Activity entry was “Non-Toxic”.
